Results reported in US8129366B2, “VLA-4 inhibitory drug” (Daiichi Sankyo Company, Limited, priority 2005, dated 2012).

Molecular target: T1, hα4 and β1 integrins (Homo sapiens, UniProt P05556+P13612)
T1 construct: expressed in transfected cells; host or cells: CHO cells
Test: In vitro inhibition of binding between CHO cells expressing hα4 and β1 integrins and Eu3+-hVCAM-1 D1D7-IgG
Details: for Ki: CHO cells expressing hα4 and β1 integrins, Eu3+-hVCAM-1 D1D7-IgG ligand, without HSA; for IC50: in the presence of 3% human serum albumin (HSA final concentration 3%)
Experimental: CHO cells which forcibly expressed hα4 and β1 integrins through transfection thereof, were inoculated into a Costar 3599 plate (3×10^4 cells/100 μl/well), and cultured for two days. The cells in the wells were washed two times with buffer A*, and then Eu^3+-hVCAM-1 D1D7-IgG diluted with assay buffer** to 2 nM was added in an amount of 50 μl/well. The substance under test diluted with 26 DMSO-assay buffer (in the co-presence or absence of 6% human serum albumin) was added in an amount of 50 μl/well (adding separately diluted solution to the wells for performing Scatchard analysis), the contents were stirred for 5 minutes with a plate mixer, and then the plate was left to stand still for one hour at room temperature. The binding inhibitory activity in the presence of human serum albumin (HSA) was examined by diluting the specimen with 26 DMSO-assay buffer containing 6% HSA (SIGMA Corp., c/n A-1653), and adding the resultant (HSA final concentration 3%). After 30 to 60 minutes of the addition of specimen, the plate contents were washed 4 times with buffer A at 4° C., an enhancing reagent (DELFIA SA) was added in an amount of 100 μl/well, and the plate was shaken for 5 minutes using a plate mixer. Subsequently, the fluorescence intensity was measured with a time-resolved fluorometer (DELFIA Wallac). The IC50 of the substance under test (the concentration for 50% inhibition of the binding between CHO cells and Eu^3+-hVCAM-1 D1D7-IgG) was determined from the binding rate obtained from the calculating expression of [(FT−FNS)−(FI−FNS)]/[(FT−FNS)]×100. Here, FT represents the fluorescence intensity of a well not containing the substance under test; FNS represents the fluorescence intensity of a well not containing the substance under test and hVCAM-1 D1D7-IgG; and FI represents the fluorescence intensity of a well containing the substance under test. The Kd value which represents the strength of binding, and Bmax (maximum binding amount) were estimated to be in the range of 0.06 to 20 nM according to the Scatchard analysis method. The evaluation results of the Ki value of the substance under test, and of the IC50 value in the presence of 3% HSA are presented in Tables 2 to 7.
The Ki value was calculated according to the above-described expression. ([L] is the ligand concentration)
[* buffer A: 25 mM HEPES (pH 7.5), 150 mM NaCl, 1 mM Ca^2+, 1 mM Mg^2+, 4 mM Mn2+;
** assay buffer: 25 mM HEPES (pH=7.5), 150 mM NaCl, 1 mM Ca^2+, 1 mM Mg^2+, 4 mM Mn^2+, 0.1% BSA, 20 μM DTPA, with/without 6% ALBUMIN, HUMAN SERUM (C/N A-1653, SIGMA)]

T1 sequence (P13612 34-1032): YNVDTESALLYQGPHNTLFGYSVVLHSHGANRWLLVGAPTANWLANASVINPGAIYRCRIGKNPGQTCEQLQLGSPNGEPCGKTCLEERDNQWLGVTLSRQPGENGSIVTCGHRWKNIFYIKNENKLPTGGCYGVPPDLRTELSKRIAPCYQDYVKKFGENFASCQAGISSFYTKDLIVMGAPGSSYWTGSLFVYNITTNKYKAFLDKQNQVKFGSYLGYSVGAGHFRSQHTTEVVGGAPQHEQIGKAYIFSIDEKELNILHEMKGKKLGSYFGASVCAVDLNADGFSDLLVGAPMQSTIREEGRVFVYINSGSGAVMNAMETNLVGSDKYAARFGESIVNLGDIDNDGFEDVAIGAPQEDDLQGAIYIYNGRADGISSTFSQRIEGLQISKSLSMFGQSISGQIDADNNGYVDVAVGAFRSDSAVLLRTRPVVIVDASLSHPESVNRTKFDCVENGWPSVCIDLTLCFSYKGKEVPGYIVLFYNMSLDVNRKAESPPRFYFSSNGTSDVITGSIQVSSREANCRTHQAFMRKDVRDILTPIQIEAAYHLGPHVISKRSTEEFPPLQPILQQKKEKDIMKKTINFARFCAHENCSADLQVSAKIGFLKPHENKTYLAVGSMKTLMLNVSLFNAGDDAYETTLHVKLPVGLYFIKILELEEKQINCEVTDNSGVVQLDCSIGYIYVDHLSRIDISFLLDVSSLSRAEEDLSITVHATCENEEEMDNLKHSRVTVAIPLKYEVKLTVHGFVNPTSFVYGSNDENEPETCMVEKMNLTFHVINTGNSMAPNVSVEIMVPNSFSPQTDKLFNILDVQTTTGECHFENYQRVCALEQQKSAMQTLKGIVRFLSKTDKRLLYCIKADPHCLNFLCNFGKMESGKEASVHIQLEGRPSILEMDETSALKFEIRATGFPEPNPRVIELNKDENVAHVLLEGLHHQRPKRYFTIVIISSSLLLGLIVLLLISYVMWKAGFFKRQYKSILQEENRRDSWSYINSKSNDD
T1 sequence (P05556 21-798): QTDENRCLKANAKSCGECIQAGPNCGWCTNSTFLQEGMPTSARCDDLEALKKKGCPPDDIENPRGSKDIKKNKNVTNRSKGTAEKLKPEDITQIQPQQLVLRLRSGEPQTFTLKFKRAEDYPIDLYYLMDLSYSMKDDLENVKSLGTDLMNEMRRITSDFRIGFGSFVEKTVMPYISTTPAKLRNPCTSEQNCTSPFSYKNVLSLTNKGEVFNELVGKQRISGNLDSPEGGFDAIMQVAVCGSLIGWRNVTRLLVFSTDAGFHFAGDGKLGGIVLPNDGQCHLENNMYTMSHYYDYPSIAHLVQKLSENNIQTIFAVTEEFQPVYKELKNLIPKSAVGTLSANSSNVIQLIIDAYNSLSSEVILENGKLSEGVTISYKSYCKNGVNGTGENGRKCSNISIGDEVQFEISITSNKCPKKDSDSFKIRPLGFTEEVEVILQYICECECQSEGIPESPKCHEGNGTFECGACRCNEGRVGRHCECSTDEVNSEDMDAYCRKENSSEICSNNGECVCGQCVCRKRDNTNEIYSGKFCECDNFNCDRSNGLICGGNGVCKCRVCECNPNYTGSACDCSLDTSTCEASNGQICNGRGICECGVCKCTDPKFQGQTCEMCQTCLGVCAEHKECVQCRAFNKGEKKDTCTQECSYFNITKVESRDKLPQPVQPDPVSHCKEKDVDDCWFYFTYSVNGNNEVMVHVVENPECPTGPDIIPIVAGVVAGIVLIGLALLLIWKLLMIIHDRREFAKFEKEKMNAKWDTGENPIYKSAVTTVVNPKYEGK

Structure (SMILES)	Ki	IC50
COc1cc(CC(=O)N2C[C@@H](N3CCN(CC(F)(F)F)CC3)C[C@H]2CO[C@H]2CC[C@H](C(=O)O)CC2)ccc1NC(=O)c1cn(C)c2ccccc12 [Example 135, Trans-4-[1-[[3-methoxy-4-[(1-methyl-1H-indol-3-ylcarbonyl)amino]phenyl]acetyl]-(4S)-[4-(2,2,2-trifluoroethyl)piperazin-1-yl]-(2S)-pyrrolidinylmethoxy]cyclohexanecarboxylic acid]	1.7 nM	4.4 nM
O=C(Nc1cc(F)c(CC(=O)N2C[C@@H](N3C[C@@H]4CS(=O)(=O)C[C@@H]4C3)C[C@H]2CO[C@H]2CC[C@H](C(=O)O)CC2)cc1Cl)c1coc2ccccc12 [Example 77, Trans-4-[1-[[4-[(benzo[b]furan-3-ylcarbonyl)amino]-5-chloro-2-fluorophenyl]acetyl]-(4S)-[(3a,6a-cis)-hexahydro-2,2-dioxo-2λ^6-thieno[3,4-c]pyrrol-5-yl]-(2S)-pyrrolidinylmethoxy]cyclohexanecarboxylic acid]	2 nM	4.1 nM
CN1CCN([C@H]2C[C@@H](CO[C@H]3CC[C@H](C(=O)O)CC3)N(C(=O)Cc3cc(Cl)c(NC(=O)c4cn(C)c5ccccc45)cc3Cl)C2)CC1 [Example 112, Trans-4-[1-[[2,5-dichloro-4-[(1-methyl-1H-indol-3-ylcarbonyl)amino]phenyl]acetyl]-(4S)-(4-methylpiperazin-1-yl)-(2S)-pyrrolidinylmethoxy]cyclohexanecarboxylic acid]	4.2 nM	9.5 nM
C[C@@H]1CN([C@H]2C[C@@H](CO[C@H]3CC[C@H](C(=O)O)CC3)N(C(=O)Cc3cc(Cl)c(NC(=O)c4coc5ccccc45)cc3F)C2)C[C@H](C)N1C [Example 146, Trans-4-[1-[[4-[(benzo[b]furan-3-ylcarbonyl)amino]-5-chloro-2-fluorophenyl]acetyl]-(4S)-(cis-1,2,6-trimethylpiperazin-4-yl)-(2S)-pyrrolidinylmethoxy]cyclohexanecarboxylic acid]	2.6 nM	7.6 nM
O=C(Nc1cc(F)c(CC(=O)N2C[C@@H](N3CCC3)C[C@H]2CO[C@H]2CC[C@H](C(=O)O)CC2)cc1Cl)c1csc2ccccc12 [Example 9, Trans-4-[(4S)-(azetidin-1-yl)-1-[[4-[(benzo[b]thiophen-3-ylcarbonyl)amino]-5-chloro-2-fluorophenyl]acetyl]-(2S)-pyrrolidinylmethoxy]cyclohexanecarboxylic acid]	1.4 nM	8.2 nM
COc1cc(CC(=O)N2C[C@@H](N3CCN(CC(F)(F)F)CC3)C[C@H]2CO[C@H]2CC[C@H](C(=O)O)CC2)ccc1NC(=O)c1csc2ccccc12 [Example 133, Trans-4-[1-[[4-[(benzo[b]thiophen-3-ylcarbonyl)amino]-3-methoxyphenyl]acetyl]-(4S)-[4-(2,2,2-trifluoroethyl)piperazin-1-yl]-(2S)-pyrrolidinylmethoxy]cyclohexanecarboxylic acid]	1.3 nM	3.3 nM
CO[C@H]1CN([C@H]2C[C@@H](CO[C@H]3CC[C@H](C(=O)O)CC3)N(C(=O)Cc3cc(Cl)c(NC(=O)c4cn(C)c5ccccc45)cc3F)C2)C[C@H]1OC [Example 55, Trans-4-[1-[[5-chloro-2-fluoro-4-[(1-methyl-1H-indol-3-ylcarbonyl)amino]phenyl]acetyl]-(4S)-(cis-3,4-dimethoxypyrrolidin-1-yl)-(2S)-pyrrolidinylmethoxy]cyclohexanecarboxylic acid]	2.6 nM	9.2 nM
CC1CCCN1[C@H]1C[C@@H](CO[C@H]2CC[C@H](C(=O)O)CC2)N(C(=O)Cc2cc(Cl)c(NC(=O)c3csc4ccccc34)cc2F)C1 (stereo partly drawn) [Example 40, Trans-4-[1-[[4-[(benzo[b]thiophen-3-ylcarbonyl)amino]-5-chloro-2-fluorophenyl]acetyl]-(4S)-(2-methylpyrrolidin-1-yl)-(2S)-pyrrolidinylmethoxy]cyclohexanecarboxylic acid]	2 nM	9.1 nM
O=C(Nc1ccc(CC(=O)N2C[C@@H](N3CCN(CC(F)(F)F)CC3)C[C@H]2CO[C@H]2CC[C@H](C(=O)O)CC2)cc1Cl)c1csc2ccccc12 [Example 134, Trans-4-[1-[[4-[(benzo[b]thiophen-3-ylcarbonyl)amino]-3-chlorophenyl]acetyl]-(4S)-[4-(2,2,2-trifluoroethyl)piperazin-1-yl]-(2S)-pyrrolidinylmethoxy]cyclohexanecarboxylic acid]	1.2 nM	6.8 nM
C[C@@H]1CN([C@H]2C[C@@H](CO[C@H]3CC[C@H](C(=O)O)CC3)N(C(=O)Cc3cc(Cl)c(NC(=O)c4cn(C)c5ccccc45)cc3F)C2)C[C@H](C)O1 [Example 81, Trans-4-[1-[[5-chloro-2-fluoro-4-[(1-methyl-1H-indol-3-ylcarbonyl)amino]phenyl]acetyl]-(4S)-(cis-2,6-dimethylmorpholin-4-yl)-(2S)-pyrrolidinylmethoxy]cyclohexanecarboxylic acid]	3 nM	12 nM
CC1CN([C@H]2C[C@@H](CO[C@H]3CC[C@H](C(=O)O)CC3)N(C(=O)Cc3cc(Cl)c(NC(=O)c4cn(C)c5ccccc45)cc3Cl)C2)CC(C)O1 (stereo partly drawn) [Example 91, Trans-4-[1-[[2,5-dichloro-4-[(1-methyl-1H-indol-3-ylcarbonyl)amino]phenyl]acetyl]-(4S)-(2,6-dimethylmorpholin-4-yl)-(2S)-pyrrolidinylmethoxy]cyclohexanecarboxylic acid]	2.4 nM	81 nM

More lines, in order of falling Ki, values ahead:

Ki	IC50	Structure (SMILES)
4.2 nM	13 nM	Cn1cc(C(=O)Nc2cc(Cl)c(CC(=O)N3C[C@@H](N4CCN(CC5CC5)CC4)C[C@H]3CO[C@H]3CC[C@H](C(=O)O)CC3)cc2Cl)c2ccccc21 [Example 115, Trans-4-[1-[[2,5-dichloro-4-[(1-methyl-1H-indol-3-ylcarbonyl)amino]phenyl]acetyl]-(4S)-[(4-cyclopropylmethyl)piperazin-1-yl]-(2S)-pyrrolidinylmethoxy]cyclohexanecarboxylic acid]
3.2 nM	10 nM	CO[C@H]1CN([C@H]2C[C@@H](CO[C@H]3CC[C@H](C(=O)O)CC3)N(C(=O)Cc3ccc(NC(=O)c4nn(C)c5ccccc45)c(Cl)c3)C2)C[C@H]1OC [Example 62, Trans-4-[1-[[4-[(1-methyl-1H-indazol-3-ylcarbonyl)amino]-3-chlorophenyl]acetyl]-(4S)-(cis-3,4-dimethoxypyrrolidin-1-yl)-(2S)-pyrrolidinylmethoxy]cyclohexanecarboxylic acid]
2.9 nM	35 nM	CO[C@@H]1CN([C@H]2C[C@@H](CO[C@H]3CC[C@H](C(=O)O)CC3)N(C(=O)Cc3cc(Cl)c(NC(=O)c4coc5ccccc45)cc3Cl)C2)C[C@H]1OC [Example 65, Trans-4-[1-[[4-[(benzo[b]furan-3-ylcarbonyl)amino]-2,5-dichlorophenyl]acetyl]-(4S)-[(3R,4R)-dimethoxypyrrolidin-1-yl]-(2S)-pyrrolidinylmethoxy]cyclohexanecarboxylic acid]
2.4 nM	23 nM	C[C@@H]1CN([C@H]2C[C@@H](CO[C@H]3CC[C@H](C(=O)O)CC3)N(C(=O)Cc3cc(Cl)c(NC(=O)c4coc5ccccc45)cc3F)C2)C[C@H](C)O1 [Example 84, Trans-4-[1-[[4-[(benzo[b]furan-3-ylcarbonyl)amino]-5-chloro-2-fluorophenyl]acetyl]-(4S)-(cis-2,6-dimethylmorpholin-4-yl)-(2S)-pyrrolidinylmethoxy]cyclohexanecarboxylic acid]
1.2 nM	12 nM	O=C(Nc1cc(F)c(CC(=O)N2C[C@@H](n3ccnc3)C[C@H]2CO[C@H]2CC[C@H](C(=O)O)CC2)cc1Cl)c1csc2ccccc12 [Example 67, Trans-4-[1-[[4-[(benzo[b]thiophen-3-ylcarbonyl)amino]-5-chloro-2-fluorophenyl]acetyl]-(4S)-(imidazol-1-yl)-(2S)-pyrrolidinylmethoxy]cyclohexanecarboxylic acid]
1.1 nM	5.9 nM	O=C(Nc1cc(Cl)c(CC(=O)N2C[C@@H](N3CCCN(C4CC4)CC3)C[C@H]2CO[C@H]2CC[C@H](C(=O)O)CC2)cc1Cl)c1csc2ccccc12 [Example 169, Trans-4-[1-[[4-[(benzo[b]thiophen-3-ylcarbonyl)amino]2,5-dichlorophenyl]acetyl]-(4S)-(4-cyclopropyl-[1,4]-diazepan-1-yl)-(2S)-pyrrolidinylmethoxy]cyclohexanecarboxylic acid]
